This note sets out measurements from publication PMC3140512, “Identification of Toxoplasma gondii cAMP Dependent Protein Kinase and Its Role in the Tachyzoite Growth” (PLoS ONE, 2011).

SMILES strings stand for the structures. pIC50: −log10 of the molar value.

For this assay, the target named is T1, TgPKA-C (T. gondii PKA catalytic subunit; ToxoDB TGGT1_081170) (Toxoplasma gondii, UniProt Q58G65).
T1 construct: gene PKA2; entire ORF (343 amino acid residues), GST fusion, wheat germ cell-free expression
T1 sequence (Q58G65 entry or part of it): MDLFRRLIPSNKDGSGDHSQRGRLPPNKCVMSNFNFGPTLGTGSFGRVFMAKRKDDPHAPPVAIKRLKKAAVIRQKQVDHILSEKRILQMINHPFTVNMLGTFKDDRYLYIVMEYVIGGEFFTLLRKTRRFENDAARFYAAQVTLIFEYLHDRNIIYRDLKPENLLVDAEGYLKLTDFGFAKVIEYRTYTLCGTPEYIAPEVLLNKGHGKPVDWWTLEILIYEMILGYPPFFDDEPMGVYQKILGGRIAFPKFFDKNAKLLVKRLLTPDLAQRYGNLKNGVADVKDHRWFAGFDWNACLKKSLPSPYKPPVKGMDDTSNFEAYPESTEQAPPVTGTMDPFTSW
Kind of assay: in vitro radiometric kinase assay ([γ-32P]ATP, Histone IIAS substrate) with purified GST-TgPKA-C. The assay is classed as biochemical.

Usually pIC50 stands for the negative decadic logarithm of the IC50, by convention in mol/L. Read a high pIC50 as a low IC50.

The compound `O=S(=O)(NCCNC/C=C/c1ccc(Br)cc1)c1cccc2cnccc12` [H89, N-[2-(p-bromocinnamylamino)ethyl]-5-isoquinolinesulfonamide] showed a pIC50 of 3.76.
